The values below come from patent US10087165B2, “Fluoroquinolones and use thereof to treat bacterial infections” (UNIVERSITÉ PIERRE ET MARIE CURIE—PARIS 6 (UPMC), priority 2014, dated 2018).

Converted amounts (≈) assume the structure as drawn. Where two headings read alike, the source gives them in different places.

Assay [1] relates to M. tuberculosis H37Rv. The assay can be described thus: microbe, parasite or virus in culture. Further details: MIC against wild-type M. tuberculosis strain (below moxifloxacin MIC): unit not given beside the values. Conditions: for MIC: Mycobacterium tuberculosis. It is filed as cell-based.
For assay [2], the target named is T1, M. tuberculosis DNA gyrase (Mycobacterium tuberculosis, UniProt P9WG45+P9WG47). The assay can be described thus: biochemical.
T1 sequence (P9WG47 whole entry): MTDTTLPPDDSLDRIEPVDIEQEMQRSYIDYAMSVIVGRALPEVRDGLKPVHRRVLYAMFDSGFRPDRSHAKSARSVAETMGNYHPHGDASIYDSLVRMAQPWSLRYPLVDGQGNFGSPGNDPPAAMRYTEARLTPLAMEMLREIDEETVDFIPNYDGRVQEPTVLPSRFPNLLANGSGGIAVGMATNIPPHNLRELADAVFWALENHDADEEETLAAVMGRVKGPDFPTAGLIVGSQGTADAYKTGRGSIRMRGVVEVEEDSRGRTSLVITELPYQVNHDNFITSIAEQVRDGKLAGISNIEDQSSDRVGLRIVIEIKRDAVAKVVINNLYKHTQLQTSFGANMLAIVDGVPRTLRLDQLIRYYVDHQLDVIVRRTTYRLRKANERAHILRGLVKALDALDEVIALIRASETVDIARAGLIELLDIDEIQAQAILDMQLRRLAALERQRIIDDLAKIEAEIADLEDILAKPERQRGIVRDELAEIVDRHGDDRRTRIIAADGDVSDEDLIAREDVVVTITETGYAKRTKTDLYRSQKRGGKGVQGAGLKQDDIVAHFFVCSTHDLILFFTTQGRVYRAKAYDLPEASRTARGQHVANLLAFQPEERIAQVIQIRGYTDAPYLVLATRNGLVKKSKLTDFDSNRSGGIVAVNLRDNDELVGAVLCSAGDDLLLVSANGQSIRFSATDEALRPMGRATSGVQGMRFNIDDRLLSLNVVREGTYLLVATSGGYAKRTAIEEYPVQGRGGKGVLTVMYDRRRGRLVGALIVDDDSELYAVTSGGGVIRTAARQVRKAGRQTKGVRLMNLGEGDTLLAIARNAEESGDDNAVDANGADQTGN
T1 sequence (P9WG45 whole entry): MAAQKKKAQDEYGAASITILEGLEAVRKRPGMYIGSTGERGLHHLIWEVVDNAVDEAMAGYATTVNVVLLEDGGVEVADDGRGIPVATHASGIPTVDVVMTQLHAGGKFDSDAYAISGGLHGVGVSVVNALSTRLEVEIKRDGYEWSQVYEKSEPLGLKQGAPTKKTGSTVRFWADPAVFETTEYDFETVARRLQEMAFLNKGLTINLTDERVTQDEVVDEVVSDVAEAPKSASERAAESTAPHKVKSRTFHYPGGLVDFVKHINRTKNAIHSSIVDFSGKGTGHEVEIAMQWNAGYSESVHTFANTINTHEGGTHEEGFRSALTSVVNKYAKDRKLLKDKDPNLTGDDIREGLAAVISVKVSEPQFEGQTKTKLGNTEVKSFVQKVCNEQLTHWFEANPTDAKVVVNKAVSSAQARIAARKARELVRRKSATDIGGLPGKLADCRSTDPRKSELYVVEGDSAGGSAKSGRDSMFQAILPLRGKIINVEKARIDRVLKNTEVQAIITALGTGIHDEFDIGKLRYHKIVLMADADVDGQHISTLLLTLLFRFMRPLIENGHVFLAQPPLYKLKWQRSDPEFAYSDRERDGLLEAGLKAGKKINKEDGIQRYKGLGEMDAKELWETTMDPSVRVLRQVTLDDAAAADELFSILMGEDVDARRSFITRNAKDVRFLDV
Assay [3] has as its system M. tuberculosis H37Rv strain. Put plainly: Minimal effective dosage in the murine TB model. The class given is in vivo, Balb/C/J female mice. Conditions: 25 mg/kg/j, Gavage. Here is the method:
Four-week-old Balb/C/J female mice were infected intravenously with 10^6 CFU of M. tuberculosis H37Rv strain. On the day following the infection (D1), 10 mice were sacrificed to determine the exact baseline values of spleen weight and CFU counts in the lungs. The remaining mice were allocated to the following treatment groups: an untreated negative control group for survival monitoring, a positive control group treated for 1 month with isoniazid (INH) 25 mg/kg/d, […] test groups were treated with Quin18 and Quin19 at increasing dosages (25 mg/kg/d; 50 mg/kg/d; 100 mg/kg/d; 150 mg/kg/d) given by oral gavage, and two additional test groups were treated intravenously with Quin18 25 mg/kg/d and 100 mg/kg/d. All the groups contained 10 mice and were treated from D1 to D28, 5 days a week. The parameters used for assessing the severity of infection and the effectiveness of treatments were survival rate, spleen weight, gross lung lesions and CFU counts in the lungs.
The minimal effective dosage was defined as the minimal dosage able to prevent mortality of the mice, spleen enlargement and the occurrence of gross lung lesions. CFU counts were considered to be a more precise way of determining the dose-ranging efficacy of Quin18 and Quin19.
Survival rates between groups were plotted on a Kaplan-Meier curve and compared using the log-rank test.

In assay [4] the test system is M. tuberculosis H37Rv. The following applies: Table 2, published previously (Poissy et al. 2010); cited from earlier work.
Assay [5] concerns the target T1, M. tuberculosis DNA gyrase. On the set-up: made in house. Conditions: Table 2; published previously (Poissy et al. 2010); cited from earlier work.
[6] abbreviates: H37RV, Table 3, read-out: MIC M. tuberculosis H37Rv.
[7] abbreviates: H37Rv, Table 2, read-out: MIC (M. tuberculosis) WT.

In the case of `COc1c(N2C[C@@H]3CCCN[C@@H]3C2)c(F)cc2c(=O)c(C(=O)O)cn(C3CC3)c12` [Moxifloxacin, moxifloxacin, reference compound], the MIC in assay [1] (setting [6]) is 1.2 µM (≈ 0.482 µg/mL). The “MIC against wild-type M. tuberculosis strain (below moxifloxacin MIC)” value in assay [1] (Table 3) amounted to 1.2.
`CCCCCCCCCCCCCCCCN1CCN(c2c(F)cc3c(=O)c(C(=O)O)cn(C4CC4)c3c2OC)CC1` [Quin 20, 1-cyclopropyl-6-fluoro-7-(4-hexadecylpiperazin-1-yl)-8-methoxy-4-oxo-1,4-dihydroquinoline-3-carboxylic acid]: in assay [1] (setting [7]), the MIC turned out to be 0.2 µM (≈ 0.117 µg/mL). The same molecule returned an IC50 in assay [2] of 121 µM.
In the case of `CCCCCCCCCCCN1CCN(c2c(F)cc3c(=O)c(C(=O)O)cn(C4CC4)c3c2OC)CC1` [Compound 19, 1-cyclopropyl-6-fluoro-8-methoxy-4-oxo-7-(4-undecylpiperazin-1-yl)-1,4-dihydroquinoline-3-carboxylic acid], the MIC in assay [1] (setting [6]) came to 0.25 µM (≈ 0.129 µg/mL).
As for `CCCCCN1CCN(c2c(F)cc3c(=O)c(C(=O)O)cn(C4CC4)c3c2OC)CC1` [Quin 17, 1-cyclopropyl-6-fluoro-8-methoxy-4-oxo-7-(4-pentylpiperazin-1-yl)-1,4-dihydroquinoline-3-carboxylic acid], in assay [1] (setting [7]), the MIC is 3.5 µM (≈ 1.51 µg/mL). This molecule returned an IC50 in assay [2] of 60 µM.
Take `O=C(O)c1cn(C2CC2)c2cc(N3CCNCC3)c(F)cc2c1=O` [Ciprofloxacin, ciprofloxacin, reference compound]: in assay [1] (setting [7]), the MIC worked out at 1.5 µM (≈ 0.497 µg/mL).
On to `CCCCCCCN1CCN(c2c(F)cc3c(=O)c(C(=O)O)cn(C4CC4)c3c2OC)CC1` [Compound 15, 1-cyclopropyl-6-fluoro-7-(4-heptylpiperazin-1-yl)-8-methoxy-4-oxo-1,4-dihydroquinoline-3-carboxylic acid], for which the MIC in assay [1] (setting [6]) came to 2.2 µM (≈ 1.01 µg/mL).
The same measure, in the same setting: the figure for `CCCCCCCCCN1CCN(c2c(F)cc3c(=O)c(C(=O)O)cn(C4CC4)c3c2OC)CC1` [Compound 17, 1-cyclopropyl-6-fluoro-8-methoxy-7-(4-nonylpiperazin-1-yl)-4-oxo-1,4-dihydroquinoline-3-carboxylic acid] is 0.12 µM (≈ 0.0585 µg/mL).
Consider `CCCCCCCCCCCCCCCCN1CCN(c2cc3c(cc2F)c(=O)c(C(=O)O)cn3C2CC2)CC1` [Quin 10, 1-cyclopropyl-6-fluoro-7-(4-hexadecylpiperazin-1-yl)-4-oxo-1,4-dihydroquinoline-3-carboxylic acid], for which the MIC in assay [1] (setting [7]) is 57 µM (≈ 31.7 µg/mL). This molecule gave a half-inhibitory concentration (IC50) in assay [2] of 105 µM.
For the molecule `CCCCCCCCN1CCN(c2cc3c(cc2F)c(=O)c(C(=O)O)cn3C2CC2)CC1` [Quin 16, 1-cyclopropyl-6-fluoro-7-(4-octylpiperazin-1-yl)-4-oxo-1,4-dihydroquinoline-3-carboxylic acid], in assay [1] (setting [7]), the MIC was no more than 0.2 µM. In assay [2], this molecule yielded a half-inhibitory concentration (IC50) of 135 µM.
With `CCCCCCCCCCN1CCN(c2cc3c(cc2F)c(=O)c(C(=O)O)cn3C2CC2)CC1` [Quin 9, 1-cyclopropyl-7-(4-decylpiperazin-1-yl)-6-fluoro-4-oxo-1,4-dihydroquinoline-3-carboxylic acid], in assay [1] (setting [7]), the MIC is 0.5 µM (≈ 0.236 µg/mL). For the same molecule, the IC50 in assay [2] amounted to 120 µM.
Turning to `CCCCCCCCCCCCN1CCN(c2c(F)cc3c(=O)c(C(=O)O)cn(C4CC4)c3c2OC)CC1` [Compound 20, 1-cyclopropyl-7-(4-dodecylpiperazin-1-yl)-6-fluoro-8-methoxy-4-oxo-1,4-dihydroquinoline-3-carboxylic acid], the MIC in assay [1] (setting [6]) was 0.47 µM (≈ 0.249 µg/mL).
Take `NNC(=O)c1ccncc1` [Isoniazid, isoniazid, reference compound]: in assay [3], the Spleen weight came out at 237 ± 73.8 mg. Also, the “Survival: No. death” value in assay [3] (D1 to D28, 5 days a week, 10 mice) is given as 0.
For `COc1c(N2CCNC(C)C2)c(F)cc2c(=O)c(C(=O)O)cn(C3CC3)c12` (centres unmarked) [Gatifloxacin, gatifloxacin], the “MIC (M. tuberculosis) WT” value in assay [4] was 0.32 µM (≈ 0.12 µg/mL). Besides, the IC50 in assay [5] was 6.8 µM.
Regarding `CCCCCN1CCN(c2cc3c(cc2F)c(=O)c(C(=O)O)cn3C2CC2)CC1` [Quin 15, 1-cyclopropyl-6-fluoro-4-oxo-7-(4-pentylpiperazin-1-yl)-1,4-dihydroquinoline-3-carboxylic acid], the MIC in assay [1] (setting [7]) came out at 6 µM (≈ 2.41 µg/mL). This molecule came in with a half-inhibitory concentration (IC50) in assay [2] of 76 µM.

For orientation: IC50 means the midpoint of a concentration-inhibition curve.
